# Values quoted from earlier work as cited in PubChem BioAssay AID1259410 (Chemical Carcinogenesis Research Information System (CCRIS), 2018).
# Test system: rodent tumor promotion studies, tumor incidence
# Test: CCRIS tumor promotion studies
# Details: Route [Promoter]: DERMAL, Species: MOUSE
smiles,measurement,setting,value
CCCCCCCCCCCCCC(=O)O[C@@H]1[C@@H](C)[C@@]2(O)[C@@H](C=C(CO)C[C@]3(O)C(=O)C(C)=C[C@@H]23)[C@@H]2C(C)(C)[C@]12OC(C)=O,outcome,"Carcinogen: DIBENZO[A,L]PYRENE, 191-30-0, Doses [Carcinogen]: 0.25, 1 NMOL IN 100 µL ACETONE, Doses [Promoter]: 2.16 NMOL IN 100 µL ACETONE 2/WK FOR 27 WK BEGINNING 1 WK POST CARCINOGEN DOSE (STUDY DURATION: 28 WK), Route [Carcinogen]: DERMAL, Strain/Sex: SENCAR/FEMALE",skin: tumor
same,outcome,"Carcinogen: DIBENZO[A,L]PYRENE, 191-30-0, Doses [Carcinogen]: 1.33, 4, 12 NMOL IN 100 ML ACETONE ONCE, Doses [Carcinogen]: 1.33, 4, 12 NMOL IN 100 ML ACETONE ONCE, Doses [Promoter]: 1.62 NMOL IN 100 ML ACETONE 2/WK FOR 28 WK BEGINNING 1 WK POST CARCINOGEN DOSE (STUDY DURATION: 30 WK), Route [Carcinogen]: DERMAL, Strain/Sex: SENCAR/FEMALE",skin: tumor
same,outcome,"Carcinogen: DIBENZO[A,L]PYRENE, 191-30-0, Doses [Carcinogen]: 4, 20, 100 NMOL IN 100 µL ACETONE ONCE, Doses [Carcinogen]: 4, 20, 100 NMOL IN 100 µL ACETONE ONCE, Doses [Promoter]: 3.24 NMOL/100 µL ACETONE 2/WK BEGINNING 2 WK POST CARCINOGEN DOSE AND CONTINUING FOR 24 WK (STUDY DURATION: 27 WK), Route [Carcinogen]: DERMAL, Strain/Sex: SENCAR/FEMALE",skin: tumor
same,outcome,"Carcinogen: DIBENZO[A,L]PYRENE, 191-30-0, Doses [Carcinogen]: 33.3, 100, 300 NMOL IN 100 µL ACETONE ONCE, Doses [Carcinogen]: 33.3, 100, 300 NMOL IN 100 µL ACETONE ONCE, Doses [Promoter]: 3.24 NMOL/100 µL ACETONE ONCE 1 WK POST CARCINOGEN DOSE THEN 2/WK BEGINNING 3 WK LATER AND CONTINUING FOR 11 WK (STUDY D, Route [Carcinogen]: DERMAL, Strain/Sex: SENCAR/FEMALE",skin: tumor
same,outcome,"Carcinogen: DIMETHYLBENZ[A]ANTHRACENE, 57-97-6, Doses [Carcinogen]: 0.2 UMOL IN O.2 ML ACETONE ONCE, Doses [Promoter]: 0, 5 UG IN 0.2 ML ACETONE 3/WK ADMINISTERED 7 D POST CARCINOGEN DOSE AND CONTINUING FOR DURATION OF STUDY (STUDY DURATIO, Route [Carcinogen]: DERMAL, Strain/Sex: SWISS/FEMALE","skin: tumor, squamous cell papilloma, keratoacanthoma"
same,outcome,"Carcinogen: N-METHYL-N'-NITRO-N-NITROSOGUANIDINE, 70-25-7, Doses [Carcinogen]: 4 UMOL IN 200 µL ACETONE ONCE, Doses [Promoter]: 0, 10 NMOL IN 200 µL ACETONE 2/WK FOR 52 WK BEGINNING 2 WK POST CARCINOGEN DOSE (STUDY DURATION: 52 WK), Route [Carcinogen]: DERMAL, Strain/Sex: C3H/CB/S/GEN/FEMALE",skin: tumor
same,outcome,"Carcinogen: N-METHYL-N'-NITRO-N-NITROSOGUANIDINE; 70-25-7; Doses [Carcinogen]: 4 UMOL IN 200 µL ACETONE ONCE; Doses [Promoter]: 0; 10 NMOL IN 200 µL ACETONE 2/WK FOR 52 WK BEGINNING 2 WK POST CARCINOGEN DOSE STUDY DURATION: 52 WK), Route [Carcinogen]: DERMAL, Strain/Sex: C3H/FEMALE",skin: tumor
same,outcome,"Carcinogen: PHENOXYOXIRANE, 79526-11-7, Doses [Carcinogen]: 5 UMOL IN 0.2 ML 15% DMSO IN ACETONE ONCE, Doses [Promoter]: 0, 15 NMOL IN 0.1 ML ACETONE ONCE 18-24 HR PRIOR TO CARCINOGEN DOSE THEN BEGINNING 1 WK LATER 2/WK FOR DURATION OF STUDY, Route [Carcinogen]: DERMAL, Strain/Sex: ICR/FEMALE",skin: papilloma
same,outcome,"Carcinogen: PHENYL VINYL ETHER, 766-94-9, Doses [Carcinogen]: 5 UMOL IN 0.2 ML 15% DMSO IN ACETONE ONCE, Doses [Promoter]: 0, 15 NMOL IN 0.1 ML ACETONE ONCE 18-24 HR PRIOR TO CARCINOGEN DOSE THEN BEGINNING 1 WK LATER 2/WK FOR DURATION OF STUDY, Route [Carcinogen]: DERMAL, Strain/Sex: ICR/FEMALE",skin: papilloma
same,outcome,"Carcinogen: SYN-1,2-DIHYDROXY-3,4-EPOXY-1,2,3,4-TETRAHYDRO-5,6-DIMETHYLCHRYSENE, 139562-15-5, Doses [Carcinogen]: 100 NMOL IN 0.1 ML ACETONE ONCE, Doses [Promoter]: 0, 2.5 UG IN 0.1 ML ACETONE 3/WK FOR 20 WK BEGINNING 10 D POST CARCINOGEN DOSE (STUDY DURATION: 20 WK), Route [Carcinogen]: DERMAL, Strain/Sex: CD-1/FEMALE",skin: tumor
same,outcome,"Carcinogen: THIRAM, 137-26-8, Doses [Carcinogen]: 100 MG/KG BW 3/WK FOR 3 WK, Doses [Promoter]: 0, 5 UG IN 100 µL ACETONE 3/WK FOR 51 WK BEGINNING 1 WK POST CARCINOGEN TREATMENT (STUDY DURATION: 54 WK), Route [Carcinogen]: DERMAL, Strain/Sex: SWISS/FEMALE",skin: tumor
same,outcome,"Carcinogen: THIRAM, 137-26-8, Doses [Carcinogen]: 100 MG/KG BW IN 100 µL DMSO ONCE, Doses [Promoter]: 5 UG IN 100 µL ACETONE 3/WK BEGINNING 1 WK POST CARCINOGEN DOSE (STUDY DURATION: 52 WK), Route [Carcinogen]: DERMAL, Strain/Sex: SWISS/MALE",skin: tumor
same,outcome,"Carcinogen: THIRAM, 137-26-8, Doses [Carcinogen]: 100 MG/KG BW IN 100 µL DMSO ONCE, Doses [Promoter]: 5 UG IN 100 µL ACETONE 3/WK FOR 3 WK BEGINNING 1 WK POST CARCINOGEN DOSE (STUDY DURATION: 52 WK), Route [Carcinogen]: DERMAL, Strain/Sex: SWISS/FEMALE",skin: tumor
same,outcome,"Carcinogen: THIRAM, 137-26-8, Doses [Carcinogen]: 100 MG/KG BW IN 100 µL DMSO ONCE, Doses [Promoter]: 5 UG IN 100 µL ACETONE 3/WK FOR 51 WK BEGINNING 1 WK POST CARCINOGEN DOSE (STUDY DURATION: 52 WK), Route [Carcinogen]: DERMAL, Strain/Sex: SWISS/MALE",skin: tumor
same,outcome,"Carcinogen: TRANS-4,5-DIHYDROBENZO[J]FLUORANTHENE-4,5-DIOL, 106542-80-7, Doses [Carcinogen]: 0, 1, 3 UMOL (TOTAL DOSE) IN ACETONE SOLUTION 1/2 D FOR 10 DOSES, Doses [Carcinogen]: 0, 1, 3 UMOL (TOTAL DOSE) IN ACETONE SOLUTION 1/2 D FOR 10 DOSES, Doses [Promoter]: 2.5 UG IN ACETONE 3/WK BEGINNING 10 D POST LAST CARCINOGEN DOSE AND CONTINUING FOR 20 WK (STUDY DURATION: 23 WK), Route [Carcinogen]: DERMAL, Strain/Sex: CD-1/FEMALE",skin: tumors
same,outcome,"Carcinogen: TRANS-9,10-DIHYDRO-5,9,10-TRIHYDROXYBENZO[B]FLUORANTHENE, 114451-04-6, Doses [Carcinogen]: 0, 0.04, 0.12, 0.4 UMOL (TOTAL DOSE) APPLIED IN SUBDOSES 1/2 D FOR 5 WK, Doses [Carcinogen]: 0, 0.04, 0.12, 0.4 UMOL (TOTAL DOSE) APPLIED IN SUBDOSES 1/2 D FOR 5 WK, Doses [Promoter]: 2.5 UG IN 100 µL ACETONE 3/WK FOR 20 WK BEGINNING 10 D POST LAST CARCINOGEN DOSE (STUDY DURATION: 26 WK), Route [Carcinogen]: DERMAL, Strain/Sex: CD-1/FEMALE",skin: tumor
same,outcome,"Carcinogen: TRANS-9,10-DIHYDRO-6,9,10-TRIHYDROXYBENZO[B]FLUORANTHENE, 114451-05-7, Doses [Carcinogen]: 0, 0.4 UMOL (TOTAL DOSE) APPLIED IN SUBDOSES 1/2 D FOR 5 WK, Doses [Promoter]: 2.5 UG IN 100 µL ACETONE 3/WK FOR 20 WK BEGINNING 10 D POST LAST CARCINOGEN DOSE (STUDY DURATION: 26 WK), Route [Carcinogen]: DERMAL, Strain/Sex: CD-1/FEMALE",skin: tumor
same,outcome,"Carcinogen: TRANS-9,10-DIHYDROBENZO[J]FLUORANTHENE-9,10-DIOL, 76479-14-6, Doses [Carcinogen]: 0, 3 UMOL (TOTAL DOSE) IN ACETONE SOLUTION 1/2 D FOR 10 DOSES, Doses [Promoter]: 2.5 UG IN ACETONE 3/WK BEGINNING 10 D POST LAST CARCINOGEN DOSE AND CONTINUING FOR 20 WK (STUDY DURATION: 23 WK), Route [Carcinogen]: DERMAL, Strain/Sex: CD-1/FEMALE",skin: tumors
same,outcome,"Carcinogen: VINYL CARBAMATE EPOXIDE, 82617-23-0, Doses [Carcinogen]: 0, 5.8, 11.5 UMOL IN 0.2 ML 15% DMSO 1/WK FOR 5 WK, Doses [Carcinogen]: 0, 5.8, 11.5 UMOL IN 0.2 ML 15% DMSO 1/WK FOR 5 WK, Doses [Promoter]: 0, 2.5 UG IN 0.1 ML ACETONE 18-24 HR PRIOR TO EACH CARCINOGEN DOSE THEN 2/WK FOR DURATION OF STUDY (STUDY DURATION: 22 W, Route [Carcinogen]: DERMAL, Strain/Sex: CD-1/FEMALE",skin: papilloma
same,outcome,"Carcinogen: VINYL CARBAMATE EPOXIDE, 82617-23-0, Doses [Carcinogen]: 1.5, 11.5 UMOL IN 0.2 ML 15% DMSO ONCE, Doses [Promoter]: 0, 2.5 UG IN 0.1 ML ACETONE 18-24 HR PRIOR TO CARCINOGEN DOSE THEN 2/WK FOR DURATION OF STUDY (STUDY DURATION: 22 WK), Route [Carcinogen]: DERMAL, Strain/Sex: CD-1/FEMALE",skin: papilloma
same,outcome,"Carcinogen: VINYL CARBAMATE, 15805-73-9, Doses [Carcinogen]: 0, 5.8, 11.5 UMOL IN 0.2 ML 15% DMSO 1/WK FOR 5 WK, Doses [Carcinogen]: 0, 5.8, 11.5 UMOL IN 0.2 ML 15% DMSO 1/WK FOR 5 WK, Doses [Promoter]: 0, 2.5 UG IN 0.1 ML ACETONE 18-24 HR PRIOR TO EACH CARCINOGEN DOSE THEN 2/WK FOR DURATION OF STUDY (STUDY DURATION: 22 W, Route [Carcinogen]: DERMAL, Strain/Sex: CD-1/FEMALE",skin: papilloma
same,outcome,"Carcinogen: VINYL CARBAMATE, 15805-73-9, Doses [Carcinogen]: 1.15, 11.5 UMOL IN 0.2 ML 15% DMSO ONCE, Doses [Promoter]: 0, 2.5 UG IN 0.1 ML ACETONE 18-24 HR PRIOR TO CARCINOGEN DOSE THEN 2/WK FOR DURATION OF STUDY (STUDY DURATION: 22 WK), Route [Carcinogen]: DERMAL, Strain/Sex: CD-1/FEMALE",skin: papilloma
same,outcome,"Carcinogen: X-RAY, Doses [Carcinogen]: 4.2 GY TO MALE MICE OF THE PARENT GENERATION, Doses [Promoter]: 0, 6.15 UG IN 0.1 ML ACETONE 2/WK FOR 24 WK ADMINISTERED TO F1 OFFSPRING OF IRRADIATED MALES BEGINNING AT 4 MO OF AGE (S, Route [Carcinogen]: WHOLE-BODY IRRADIATION, Strain/Sex: SHR/FEMALE",skin: tumor
same,outcome,"Carcinogen: X-RAY, Doses [Carcinogen]: 4.2 GY TO MALE MICE OF THE PARENT GENERATION, Doses [Promoter]: 0, 6.15 UG IN 0.1 ML ACETONE 2/WK FOR 24 WK ADMINISTERED TO F1 OFFSPRING OF IRRADIATED MALES BEGINNING AT 4 MO OF AGE (S, Route [Carcinogen]: WHOLE-BODY IRRADIATION, Strain/Sex: SHR/MALE",skin: tumor
same,outcome,"Carcinogen: X-RAY, Doses [Carcinogen]: 4.2 GY TO MALE MICE OF THE PARENT GENERATION, Doses [Promoter]: 0, 6.15 UG IN 0.1 ML ACETONE 2/WK FOR 24 WK ADMINISTERED TO F2 GENERATION OF IRRADIATED MALES BEGINNING AT 4 MO OF AGE (, Route [Carcinogen]: WHOLE-BODY IRRADIATION, Strain/Sex: SHR/FEMALE",skin: tumor
same,outcome,"Carcinogen: X-RAY, Doses [Carcinogen]: 4.2 GY TO MALE MICE OF THE PARENT GENERATION, Doses [Promoter]: 0, 6.15 UG IN 0.1 ML ACETONE 2/WK FOR 24 WK ADMINISTERED TO F2 GENERATION OF IRRADIATED MALES BEGINNING AT 4 MO OF AGE (, Route [Carcinogen]: WHOLE-BODY IRRADIATION, Strain/Sex: SHR/MALE",skin: tumor
